The test system of one experiment is A2780. Kind of experiment: Cytotoxicity against human A2780 cells. Type of experiment: functional, cell-based.
Another experiment deals with DNA polymerase beta (Homo sapiens, UniProt P06746). Kind of experiment: Inhibition of DNA polymerase beta lyase activity.
In experiment [1] the target is T1, M-phase inducer phosphatase 2 (Homo sapiens, UniProt P30305).
T1 sequence (P30305 whole entry): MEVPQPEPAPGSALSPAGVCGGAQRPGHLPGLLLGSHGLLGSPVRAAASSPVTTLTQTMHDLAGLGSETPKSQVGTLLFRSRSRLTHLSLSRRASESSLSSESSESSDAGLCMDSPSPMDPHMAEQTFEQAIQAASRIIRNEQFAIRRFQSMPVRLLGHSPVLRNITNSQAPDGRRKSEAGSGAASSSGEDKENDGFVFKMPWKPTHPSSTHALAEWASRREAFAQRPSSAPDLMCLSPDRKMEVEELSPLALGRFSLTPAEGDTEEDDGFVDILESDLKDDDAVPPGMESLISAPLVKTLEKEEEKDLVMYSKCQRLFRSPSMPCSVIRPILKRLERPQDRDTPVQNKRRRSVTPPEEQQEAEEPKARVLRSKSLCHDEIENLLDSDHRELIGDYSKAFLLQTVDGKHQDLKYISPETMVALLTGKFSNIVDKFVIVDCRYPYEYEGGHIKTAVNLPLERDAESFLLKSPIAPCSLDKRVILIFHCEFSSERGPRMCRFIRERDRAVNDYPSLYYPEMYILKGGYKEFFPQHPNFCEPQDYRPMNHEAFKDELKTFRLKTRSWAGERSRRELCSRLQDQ
Put plainly: (§1) Inhibition of GST-fused human recombinant Cdc25B2 (275-539) catalytic domain.

Experiment [2] concerns the target T2, M-phase inducer phosphatase 2 (Homo sapiens) (UniProt P30305).
T2 sequence (whole entry): T1 sequence (P30305 whole entry)
Described as §1.

Calls of active or inactive are those of the source. No cut-off for these calls is given here.

In the case of `C=C1CCC[C@H]2[C@](C)(CC3=C(O)C(=O)C=C(OC)C3=O)[C@@H](C)CC[C@]12C` [ILIMAQUINONE], the results for the IC50 (with A2780; against DNA polymerase beta; in experiment [1]) were 10.9 µM, 45.2 µM and 92 µM, respectively.
Regarding `O=c1ccn([C@H]2C[C@H](O)[C@@H](CO)O2)c(=O)[nH]1`, the outcome (in the experiment on A2780; at DNA polymerase beta; in experiment [2]) was inactive.
With `C=C1CCC[C@H]2[C@](C)(Cc3cc(C(=O)OC)ccc3OCC=C(C)C)[C@@H](C)CC[C@]12C`, the result (in the experiment on A2780; at DNA polymerase beta; in experiment [2]) was inactive.
Regarding `C=C1CCC[C@H]2[C@](C)(Cc3cc(C(=O)OC)ccc3O)[C@@H](C)CC[C@]12C`, the result (in the experiment with A2780; at DNA polymerase beta; in experiment [2]) was inactive.

The values are drawn from ChEMBL document CHEMBL1148924, “Marine sesquiterpenoids that inhibit the lyase activity of DNA polymerase beta” (J Nat Prod, 2004).
